According to patent US10265329B2, “Altering steroid metabolism for treatment of steroid-dependent disease” (THE CLEVELAND CLINIC FOUNDATION, priority 2015, dated 2019):

Tests used:
[1] = test system: C4-2 xenografts; test: C4-2 xenograft progression in orchiectomized mice with DHEA pellet; format: in vivo; settings: 0.5 mmol/kg/d i.p.; compared to Abi acetate and enzalutamide
Experimental: Male NSG mice, 6 to 8 weeks of age were obtained from the Cleveland Clinic Biological Resources Unit facility. All mouse studies were conducted under a protocol approved by the Cleveland Clinic Institutional Animal Care and Use Committee. Sample size was determined based on our prior studies of steroidogenesis inhibition in xenograft models of CRPC. Chang et al., Proc Natl Acad Sci USA., 108:13728-13733 (2011). Criteria for progression were determined based on similar criteria that are utilized for clinical progression. Mice were surgically orchiectomized and implanted with a 5 mg 90-day sustained-release DHEA pellet (Innovative Research of America) to mimic CRPC in the context of human adrenal physiology. Two days later, 10^7 VCaP or C4-2 cells were injected subcutaneously with matrigel. […] Control groups were administered 0.1 mL 5% benzyl alcohol and 95% safflower oil solution via intraperitoneal injection every day. Mice in enzalutamide group were fed with enzalutamide in chow every day (10 mg/Kg/day). Tran et al., Science. 324:787-790 (2009). Treatment was not blinded to the investigator. Tumor volume was measured daily, and time to increase in tumor volume by 20% was determined. […] The significance of the difference between treatment groups was assessed by Kaplan-Meier survival analysis using a log-rank test in SigmaStat 3.5.

[2] = target: T1, 3βHSD (Homo sapiens, UniProt P14060); test: Xenograft metabolism: [3H]-DHEA to AD in minced xenograft tumors; settings: LNCaP and VCaP xenografts, 0.1-10 μM
T1 construct: endogenous in cells; host or cells: LNCaP, VCaP
T1 sequence (P14060 2-373 limits assumed): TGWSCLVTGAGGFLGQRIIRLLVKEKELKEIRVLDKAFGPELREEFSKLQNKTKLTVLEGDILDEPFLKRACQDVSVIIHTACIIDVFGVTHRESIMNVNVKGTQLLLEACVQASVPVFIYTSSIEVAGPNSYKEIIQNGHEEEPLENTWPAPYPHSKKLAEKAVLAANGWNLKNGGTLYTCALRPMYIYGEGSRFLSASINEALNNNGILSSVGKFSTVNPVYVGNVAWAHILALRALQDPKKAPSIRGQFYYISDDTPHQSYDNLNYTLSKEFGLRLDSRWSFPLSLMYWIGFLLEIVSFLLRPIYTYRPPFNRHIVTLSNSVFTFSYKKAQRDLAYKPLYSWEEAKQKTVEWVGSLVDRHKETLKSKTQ
Experimental: Cell Line Metabolism: Cells were seeded and incubated in 12-well plates with 0.2 million cells/well for ˜24 h and then incubated with a mixture of radioactive ([^3H]-labeled) and non-radioactive androgens (final concentration, 100 nM; ˜1,000,000 cpm/well; PerkinElmer, Waltham, Mass.) at 37° C. Aliquots of medium were collected at the indicated times. Collected medium was treated with 1,000 units of β-glucuronidase (Helix pomatia; Sigma-Aldrich) at 65° C. for 2 h, extracted with 860 μL ethyl acetate:isooctane (1:1), and concentrated under nitrogen gas. Xenograft Metabolism: 10^7 LNCaP or VCaP cells were injected subcutaneously with Matrigel into surgically orchiectomized NSG mice that were implanted with 5 mg 90-day sustained-release DHEA pellets (Innovative Research of American, Sarasota, Fla.). […] Each xenograft was analyzed in triplicate in at least three independent experiments. […]
Dried samples were reconstituted in 50% methanol and injected into the HPLC. […] Alternatively, dried samples were applied to plastic-backed silica gel plates and separated by thin-layer chromatography (TLC) using a mobile phase of 3:1 chloroform:ethyl acetate, followed by exposure of the plates to a phosphorimager screen and quantitated with a Storm model 860 phosphorimager (Applied Biosystems, Foster City, Calif.). […]

## C[C@]12CCC(=O)C=C1CC[C@@H]1[C@@H]2CC[C@]2(C)C(c3cccnc3)=CC[C@@H]12 [Compound D4A, 17-(3-Pyridyl)androsta-4,16-dien-3-one]
[1]
  progression-free survival: increased progression-free survival
[2]
  potency relative to Abi in blocking conversion from DHEA by 3βHSD to AD: 10 fold
